Measured values as given in patent US4841051A, “Phenylpiperazine derivatives” (Nippon Kayaku Kabushiki Kaisha, priority 1985, dated 1989).

Columns and labels:
[1] = Acute toxicity, intraperitoneal; conditions: mouse, in vivo, ip, ICR male mice, up-and-down method or van der Welden method
Description: The acute toxicity due to intraperitoneal administration of a sample compound was examined by using ICR male mice (CRJ-ICR: weight of 29.5 to 52.3 g). Each sample compound was administered to from ten to thirty mice. The mice were observed until the symptom got well again. The LD50 values were determined by the up-and-down method or by van der Welden method.

SHR rat = test: Hypotensive activity, SHR rat; assay type: in vivo; conditions: 3 μg/kg, injected into femoral vein, anesthetized SHR rat
Description: (§1) The experiment was carried out using an SHR or SD male rat under anesthesia. The blood pressure was measured by inserting a polyethylene tube (a product of Clay Adams Co., Ltd.: PE-50) into its carotid arteries and using a pressure transducer (a product of Century Technology Company: CP-01) and continuously recorded on a recorder (a product of Nippon Koden Co., Ltd.). Sample compounds were each injected by a polyethylene tube (a product of Clay Adams Co., Ltd.: PE-10) inserted into the femoral vein of the rat in an amount of 3 μg/kg for an SHR rat or 10 μg/kg for an SD rat to examine the maximum hypotensive effect on systolic pressure.

[2] = target: T1, isolated vas deferens of a rat (Rattus norvegicus, UniProt P43140); test: Action on isolated vas deferens of a rat (antagonism against noradrenaline); design: species or system SD male rat; conditions: 3 minutes pretreatment, 32° C., read-out: pA2 (converted)
T1 construct: The vas deferens was isolated from SD male rats and cut into strips about 20 mm long; from tissue; host or cells: vas deferens of SD male rats
T1 sequence (P43140 1-466): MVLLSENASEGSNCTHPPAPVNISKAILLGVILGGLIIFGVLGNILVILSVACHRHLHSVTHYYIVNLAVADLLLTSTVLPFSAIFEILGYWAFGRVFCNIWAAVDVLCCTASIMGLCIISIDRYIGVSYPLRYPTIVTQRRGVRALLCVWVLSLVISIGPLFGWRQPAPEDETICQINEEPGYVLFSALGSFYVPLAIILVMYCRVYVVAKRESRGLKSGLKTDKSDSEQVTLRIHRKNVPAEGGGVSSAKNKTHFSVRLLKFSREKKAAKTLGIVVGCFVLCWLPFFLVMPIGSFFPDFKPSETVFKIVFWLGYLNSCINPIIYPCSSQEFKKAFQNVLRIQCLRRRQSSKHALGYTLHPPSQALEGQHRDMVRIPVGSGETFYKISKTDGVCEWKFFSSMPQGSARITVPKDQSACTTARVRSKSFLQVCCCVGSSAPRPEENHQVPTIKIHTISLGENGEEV
Description: The vas deferens was isolated from SD male rats and cut into strips about 20 mm long. The both ends of the strip were bounded with two threads respectively. The thread attached to one end of the strips was fixed in a 10-ml organ bath and the thread attached to other end was connected to an isotonic transducer. The bath was filled with Tyrode's solution of 32° C. comprising a solution of 8.0 g of NaCl, 0.2 g of KCl, 0.2 g of CaCl2, 0.1 g of MgCl2, 0.05 g of NaH2 PO4, 1.0 g of NaHCO3 and 1.0 g of glucose in 1 l of deionized water. A gas mixture comprising 95% of oxygen and 5% of carbon dioxide was bubbled into the bath. Resting tension of 0.5 g was loaded. Noradrenaline was treated accumulatively in the bath to obtain a consistent dose-response curve. After the pretreatment of the preparation with a sample compound for 3 minutes, another dose-response curve of noradrenaline was obtained to determine the activities of the compound. The strength of antagonism against noradrenaline was determined from these dose-response curves in terms of pA2 value.

SD rat = test: Hypotensive activity, SD rat; assay type: in vivo, SD male rat; conditions: 10 μg/kg, injected into femoral vein, anesthetized SD rat
Description: as §1

α1 -receptor = test: α1 -blocking activity (inhibition of blood pressure increase due to phenylephrine); assay type: in vivo; conditions: 10 μg/kg, femoral vein; phenylephrine 2 μg/kg i.v.; anesthetized SD male rat
Description: The blood pressure (a) of an SD male rat of 7 to 8 weeks of age was measured and 2 μg/kg of phenylephrine was administered to the rat by intravenous injection. Then the maximum response of blood pressure (b) was measured. 10 μg/kg of a sample compound was administered to the rats, followed by the intravenous injection of 2 μg/kg of phenylephrine. Then, the maximum response of blood pressure (c) was measured. The depression (d) of blood pressure increased due to phenylephrine was calculated by the following equation: [formula]
The animal was anesthetized by intraperitoneal administration of 40 mg/kg of nembutal and the anesthetic depth was kept by intravenous drip infusion of 15 mg/kg/hr of pentobarbital sodium. The blood pressure was measured by inserting a polyethylene tube (a product of Clay Adams: PE-50) and using a transducer (a product of Century Technology Company: CP-01) and continuously recorded on a pen oscillograph (a product of Nippon Koden Co., Ltd. WI-6416). Each sample compound was injected by a polyethylene tube (a product of Clay Adams Co., Ltd.: PE-10) inserted into the femoral vein.

SMILES | LD50 [1] | maximum hypotensive effect on systolic pressure, SHR rat (SHR rat) | Kb [2] | maximum hypotensive effect on systolic pressure, SD rat (SD rat) | Percentage of inhibition of blood pressure increase (α1 -receptor)
CCOc1ccccc1N1CCN(CCn2cnc3ccccc3c2=O)CC1 [Compound 1, 3-[2-[4-(2-Ethoxyphenyl)-1-piperazinyl]-ethyl]-4(3H)-quinazolone] | 400 mg/kg | +++ (pressure drop of 21 to 30 mmHg) | 0.501 nM |  | 
CCOc1ccccc1N1CCN(CCn2c(C)nc3ccccc3c2=O)CC1 [Compound 3] | 119 mg/kg | +++ (pressure drop of 21 to 30 mmHg) | 3.16 nM |  | 
CCOc1ccccc1N1CCN(CCCn2c(C)nc3ccccc3c2=O)CC1 [Compound 4] | 152 mg/kg | ++ (pressure drop of 11 to 20 mmHg) | 10 nM |  | 
CCOc1ccccc1N1CCN(CCCCn2cnc3ccccc3c2=O)CC1 [Compound 5, 3-{4-[4-(2-Ethoxyphenyl)-1-piperazinyl]butyl}-4(3H)-quinazolone] | 150 mg/kg | +++ (pressure drop of 21 to 30 mmHg) | 0.398 nM | 57.5 mmHg | 89.6%
CCOc1ccccc1N1CCN(CCCn2c(C)nc3nc(C)cc(C)c3c2=O)CC1 [Compound 6, 2,5,7-Trimethyl-3-[3-[4-(2-ethoxyphenyl)-1-piperazinyl]-propyl]pyrido[2,3-d]pyrimidin-4(3H)-one] | 128 mg/kg | ++ (pressure drop of 11 to 20 mmHg) | 2.51 nM |  | 
CCOc1ccccc1N1CCN(CCCCn2c(C)nc3nc(C)cc(C)c3c2=O)CC1 [Compound 7] | 137 mg/kg | ++ (pressure drop of 11 to 20 mmHg) | 5.01 nM |  | 
CCOc1ccccc1N1CCN(CCn2c(C)nc3nc(C)cc(C)c3c2=O)CC1 [Compound 8] | 207 mg/kg | ++ (pressure drop of 11 to 20 mmHg) | 6.31 nM |  | 
CCOc1ccccc1N1CCN(CCCCn2c(=O)n(-c3ccccc3)c(=O)c3c(C)cc(C)nc32)CC1 [Compound 10, 3-Phenyl-5,7-dimethyl-1-[4-[4-(2-ethoxyphenyl)-1-piperazinyl]butyl]pyrido[2,3-d]pyrimidine-2,4(1H,3H)-dione] | 328 mg/kg | ++ (pressure drop of 11 to 20 mmHg) | 7.94 nM |  | 
